# Read-outs that look alike come from different tables or passages of the source.
# What was measured:
# [1] = molecular target: T1, PpCHK1 (Physcomitrium patens, UniProt A0A068JFF6); test: competition of unlabeled CKs with 3H-iP, tobacco leaf microsomes expressing the receptor; format: binding
# [2] = molecular target: T2, PpCHK2 (Physcomitrium patens, UniProt A0A068JG96); test: as above; format: binding
# [3] = molecular target: T3, SmCHK4a (Selaginella moellendorffii, UniProt D8R9F4); test: as above; format: binding
# [4] = molecular target: T4, SmCHK6 (Selaginella moellendorffii, UniProt D8SUD5); test: as above; format: binding
# [5] = molecular target: PaCHK1; test: as above; format: binding, Picea abies
# [6] = molecular target: PaCHK2; test: as above; format: binding, Picea abies
# [7] = molecular target: T1, PpCHK1; test: direct 3H-iP binding (saturation, pH dependence), tobacco leaf microsomes; details: saturation curve of 3H-iP specific binding
# [8] = molecular target: T2, PpCHK2; test: as above; details: saturation curve of 3H-iP specific binding
# [9] = molecular target: T3, SmCHK4a; test: as above; details: saturation curve of 3H-iP specific binding
# [10] = molecular target: T4, SmCHK6; test: as above; details: saturation curve of 3H-iP specific binding
# [11] = molecular target: PaCHK1; test: as above; set-up: species or system Picea abies; details: saturation curve of 3H-iP specific binding
# [12] = molecular target: PaCHK2; test: as above; set-up: species or system Picea abies; details: saturation curve of 3H-iP specific binding
# [13] = system: PpCHK3; test: specific binding of 3H-iP, tobacco leaf microsomes; set-up: species or system Physcomitrium patens; details: PpCHK3 sensory module; expression confirmed by immunoblotting
# Description: (§1) We experimentally analyzed the ligand-binding properties of CHK receptors from P. patens, S. moellendorffii, and P. abies using a radiolabeled ligand method and microsomes from tobacco leaves where these receptors were transiently expressed. Tritiated isopentenyladenine served as the labeled CK. PpCHK1 and 2 proteins from P. patens were tested in a full-length version, and otherwise sensory modules (SMs) flanked by TM helices were used. PpCHK1-3 represented canonical CHK receptor group, while PpCHK4 was a representative of the related sister group. […]
# (§2) Of the eight cloned receptors, we detected no CK binding for PpCHK3 and PpCHK4, although expression of these proteins was confirmed by immunoblotting against the fused GFP domain (Figure 2). […]
# (§3) pK7WGF2 and pB7FWG2 constructs were transformed to Agrobacterium tumefaciens strain GV3101 and transiently expressed in Nicotiana benthamiana leaves. […] Transient expression was assessed by means of immunoblotting of microsomal membranes with antibodies against GFP (Agrisera, AS15 2987) diluted 1:5000 as described in [15]. Background binding of ^3H-iP by endogenous CK receptors of N. benthamiana was assessed in control probes using microsomes from untreated leaves (Figure 2). […]
# [14] = system: PpCHK4; test: specific binding of 3H-iP, tobacco leaf microsomes; set-up: species or system Physcomitrium patens; details: PpCHK4 sensory module; expression confirmed by immunoblotting
# Description: as §1, §2, §3
# [15] = system: AHK3; details: AHK3 from A. thaliana; cited from earlier work
# [16] = system: PpCHK3; details: previous data; cited from earlier work
# [17] = PpCHK1, competition with 3H-iP, Cheng-Prusoff calculation method, ± SE, read-out: KD of CK-Receptor Complexes
# [18] = PpCHK1, competition with 3H-iP, alternative calculation method (Appendix A), ± SE, read-out: KD of CK-receptor complexes
# [19] = PpCHK2, competition with 3H-iP, Cheng-Prusoff calculation method, ± SE, read-out: KD of CK-Receptor Complexes
# [20] = PpCHK2, competition with 3H-iP, alternative calculation method (Appendix A), ± SE, read-out: KD of CK-receptor complexes
# [21] = SmCHK4a, competition with 3H-iP, Cheng-Prusoff calculation method, ± SE, read-out: KD of CK-Receptor Complexes
# [22] = SmCHK4a, competition with 3H-iP, alternative calculation method (Appendix A), ± SE, read-out: KD of CK-receptor complexes
# [23] = SmCHK6, competition with 3H-iP, Cheng-Prusoff calculation method, ± SE, read-out: KD of CK-Receptor Complexes
# [24] = SmCHK6, competition with 3H-iP, alternative calculation method (Appendix A), ± SE, read-out: KD of CK-receptor complexes
# [25] = PaCHK1, competition with 3H-iP, Cheng-Prusoff calculation method, ± SE, read-out: KD of CK-Receptor Complexes
# [26] = PaCHK1, competition with 3H-iP, alternative calculation method (Appendix A), ± SE, read-out: KD of CK-receptor complexes
# [27] = PaCHK2, competition with 3H-iP, Cheng-Prusoff calculation method, ± SE, read-out: KD of CK-Receptor Complexes
# [28] = PaCHK2, competition with 3H-iP, alternative calculation method (Appendix A), ± SE, read-out: KD of CK-receptor complexes
# [29] = read-out: KD of CK-Receptor Complexes
# [30] = read-out: KD of CK-receptor complexes
# [31] = KD for PaCHK1 divided by KD for PaCHK2, Table 1 values
# T2 sequence (A0A068JG96 entry or part of it): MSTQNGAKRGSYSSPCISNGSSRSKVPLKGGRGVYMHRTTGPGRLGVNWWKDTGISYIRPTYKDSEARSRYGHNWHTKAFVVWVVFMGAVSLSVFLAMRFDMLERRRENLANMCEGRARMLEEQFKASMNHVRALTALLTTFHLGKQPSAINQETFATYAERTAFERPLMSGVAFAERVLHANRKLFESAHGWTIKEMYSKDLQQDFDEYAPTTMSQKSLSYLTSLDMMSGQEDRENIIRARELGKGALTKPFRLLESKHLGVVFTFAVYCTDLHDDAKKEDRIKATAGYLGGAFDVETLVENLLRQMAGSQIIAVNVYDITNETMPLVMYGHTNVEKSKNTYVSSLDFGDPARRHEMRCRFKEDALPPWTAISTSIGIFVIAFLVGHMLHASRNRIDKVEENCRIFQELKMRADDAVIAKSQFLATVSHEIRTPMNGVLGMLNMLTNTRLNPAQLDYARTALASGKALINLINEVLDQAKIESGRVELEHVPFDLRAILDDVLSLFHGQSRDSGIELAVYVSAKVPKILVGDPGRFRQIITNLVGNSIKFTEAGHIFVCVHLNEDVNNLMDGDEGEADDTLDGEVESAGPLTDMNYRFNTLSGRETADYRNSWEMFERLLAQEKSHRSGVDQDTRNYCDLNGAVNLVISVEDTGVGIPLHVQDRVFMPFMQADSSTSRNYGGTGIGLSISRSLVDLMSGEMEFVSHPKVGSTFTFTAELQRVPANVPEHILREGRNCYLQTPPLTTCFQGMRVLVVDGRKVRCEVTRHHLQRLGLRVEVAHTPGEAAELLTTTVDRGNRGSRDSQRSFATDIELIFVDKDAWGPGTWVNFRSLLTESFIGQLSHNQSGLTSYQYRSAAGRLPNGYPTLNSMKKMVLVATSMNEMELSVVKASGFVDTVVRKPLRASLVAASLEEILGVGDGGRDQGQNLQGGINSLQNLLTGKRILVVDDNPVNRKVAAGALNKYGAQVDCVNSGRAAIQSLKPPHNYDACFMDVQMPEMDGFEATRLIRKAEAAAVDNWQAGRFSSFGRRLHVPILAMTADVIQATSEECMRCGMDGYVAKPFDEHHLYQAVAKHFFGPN
# T4 sequence (D8SUD5 entry or part of it): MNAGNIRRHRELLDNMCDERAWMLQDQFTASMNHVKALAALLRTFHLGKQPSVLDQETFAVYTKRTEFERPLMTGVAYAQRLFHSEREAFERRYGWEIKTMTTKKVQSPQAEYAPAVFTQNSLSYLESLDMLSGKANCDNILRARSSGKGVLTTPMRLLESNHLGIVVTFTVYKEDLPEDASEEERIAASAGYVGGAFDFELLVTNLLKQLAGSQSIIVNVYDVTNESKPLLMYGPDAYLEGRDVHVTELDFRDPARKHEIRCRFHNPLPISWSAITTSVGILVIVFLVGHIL
# T3 sequence (D8R9F4 entry or part of it): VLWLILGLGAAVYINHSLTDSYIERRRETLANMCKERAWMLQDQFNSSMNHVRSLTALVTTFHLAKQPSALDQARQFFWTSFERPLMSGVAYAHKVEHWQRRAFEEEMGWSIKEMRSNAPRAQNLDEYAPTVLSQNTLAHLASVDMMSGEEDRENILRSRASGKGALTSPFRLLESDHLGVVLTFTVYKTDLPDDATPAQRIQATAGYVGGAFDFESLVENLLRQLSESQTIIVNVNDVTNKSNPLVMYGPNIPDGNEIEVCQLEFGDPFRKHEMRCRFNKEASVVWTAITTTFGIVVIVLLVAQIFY
# T1 sequence (A0A068JFF6 entry or part of it): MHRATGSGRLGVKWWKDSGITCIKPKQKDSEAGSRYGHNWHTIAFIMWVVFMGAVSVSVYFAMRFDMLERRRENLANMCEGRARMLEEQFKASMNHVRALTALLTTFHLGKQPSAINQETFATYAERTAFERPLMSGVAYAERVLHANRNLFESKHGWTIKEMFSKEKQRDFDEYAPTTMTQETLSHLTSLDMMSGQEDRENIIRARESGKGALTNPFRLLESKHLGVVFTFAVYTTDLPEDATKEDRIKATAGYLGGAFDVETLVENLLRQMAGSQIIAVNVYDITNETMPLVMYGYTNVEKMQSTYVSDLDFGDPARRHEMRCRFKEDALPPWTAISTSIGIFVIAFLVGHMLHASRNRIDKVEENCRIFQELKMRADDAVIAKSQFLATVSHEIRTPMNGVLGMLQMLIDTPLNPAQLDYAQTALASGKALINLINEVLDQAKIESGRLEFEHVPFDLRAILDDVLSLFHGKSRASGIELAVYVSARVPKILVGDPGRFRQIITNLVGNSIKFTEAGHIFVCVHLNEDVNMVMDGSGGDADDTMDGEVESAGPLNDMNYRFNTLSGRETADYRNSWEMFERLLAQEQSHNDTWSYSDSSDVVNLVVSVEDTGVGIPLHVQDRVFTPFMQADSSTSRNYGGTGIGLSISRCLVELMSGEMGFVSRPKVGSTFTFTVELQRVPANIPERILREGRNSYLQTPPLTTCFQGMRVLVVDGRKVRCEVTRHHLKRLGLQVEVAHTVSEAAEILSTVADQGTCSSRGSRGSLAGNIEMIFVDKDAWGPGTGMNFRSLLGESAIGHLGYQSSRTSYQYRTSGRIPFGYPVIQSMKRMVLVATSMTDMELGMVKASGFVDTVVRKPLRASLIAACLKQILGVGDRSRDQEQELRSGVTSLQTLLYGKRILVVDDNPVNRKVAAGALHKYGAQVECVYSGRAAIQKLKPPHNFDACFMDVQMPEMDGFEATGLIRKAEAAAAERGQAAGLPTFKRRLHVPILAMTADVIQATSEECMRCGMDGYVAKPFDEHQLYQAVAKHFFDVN
SMILES,"Kd [1, 17] [nM]","Kd [1, 18] [nM]","Kd [2, 19] [nM]","Kd [2, 20] [nM]","Kd [3, 21] [nM]","Kd [3, 22] [nM]","Kd [4, 23] [nM]","Kd [4, 24] [nM]","Kd [5, 25] [nM]","Kd [5, 26] [nM]","Kd [6, 27] [nM]","Kd [6, 28] [nM]",PaCHK1/CHK2 affinity ratio (KD1/KD2) [5],"Kd [5, 29] [nM]","Kd [5, 30] [nM]","Kd [6, 29] [nM]","Kd [6, 30] [nM]","PaCHK1/CHK2 affinity ratio (KD1/KD2) [5, 31]",also measured
"c1ccc(CNc2ncnc3nc[nH]c23)cc1 [BA, benzyladenine]",13.9 ± 0.1,12.8 ± 3,10.7 ± 0.5,14.9 ± 1.2,6.91 ± 0.34,3.2 ± 0.8,2.28 ± 0.7,2.9 ± 0.4,61.9 ± 1.3,38.4 ± 2.6,13.5 ± 1.6,12.3 ± 3.9,–,–,–,–,–,–,–
"CC(C)=CCNc1ncnc2nc[nH]c12 [iP, isopentenyladenine]",–,1.2 ± 0.3,–,0.9,1.6 ± 0.13,0.8 ± 0.2,1.7 ± 0.16,2.5 ± 0.8,3.6 ± 0.17,3 ± 0.7,2.2 ± 0.08,–,–,–,–,–,–,–,Kd [7]: 1.59 nM; Kd [8]: 1.45 nM; Kd [9]: 1.56 nM; Kd [10]: 1.75 nM; Kd [11]: 3.89 nM; Kd [12]: 2.03 nM; binding of labeled iP [13]: did not recognize; binding of labeled iP [14]: did not recognize
"C/C(=C/CNc1ncnc2nc[nH]c12)CO [cZ, cis-zeatin]",–,–,–,–,–,–,–,–,–,–,–,–,23.4,419 ± 56,286 ± 69.4,17.9 ± 2.9,22.7 ± 3.2,–,"PpCHK1/CHK2 affinity ratio (KD1/KD2) [1]: 3.01; cZ/tZ KD ratio [1]: 2.79; Kd [1, 29]: 103 ± 15 nM; Kd [1, 30]: 94.4 ± 26.3 nM; cZ/tZ KD ratio [2]: 1.89; Kd [2, 29]: 34.2 ± 9.3 nM; Kd [2, 30]: 48.6 ± 9.7 nM; cZ/tZ KD ratio [3]: 2.58; Kd [3, 29]: 20.6 ± 2.6 nM; Kd [3, 30]: 20 ± 4.9 nM; Kd [4, 29]: 16.6 ± 2.4 nM; Kd [4, 30]: 39 ± 5.1 nM; cZ/tZ KD ratio [5]: 55.4; cZ/tZ KD ratio [6]: 17.0; cZ/tZ KD ratio (affinity for tZ exceeds that for cZ) [15]: 376 folds"
"CC(CO)CCNc1ncnc2nc[nH]c12 (stereo not drawn) [DZ, dihydrozeatin]",507 ± 42,676 ± 14.4,323 ± 97,501 ± 74.7,–,–,–,–,377 ± 27,244 ± 25.9,22.4 ± 2.9,29.1 ± 5.4,–,–,–,–,–,16.8,–
"O=C(Nc1ccccc1)Nc1cnns1 [TD, thidiazuron]",23.8 ± 5.4,–,13 ± 0.2,11.9 ± 2.8,–,–,–,–,6.7 ± 0.21,3.8 ± 0.6,64.5 ± 6.4,244 ± 94.8,–,–,–,–,–,0.1,"PpCHK1/CHK2 affinity ratio (KD1/KD2) ([1]; KD for PpCHK1 divided by KD for PpCHK2, Table 1 values): 1.83"
"C/C(=C\CNc1ncnc2[nH]cnc12)CO [tZ, trans-zeatin]",36.9 ± 2,24.8 ± 2.9,18.1 ± 1.5,12.4 ± 1.5,–,–,–,–,–,–,–,–,7.21,7.57 ± 0.37,5.9 ± 1,1.05 ± 0.09,1.3 ± 0.4,–,PpCHK1/CHK2 affinity ratio (KD1/KD2) ([1]; microsomes): 2.04; binding of labeled tZ [16]: lacks the ability to bind

# From publication PMC8657898, “Cytokinin Perception in Ancient Plants beyond Angiospermae” (International Journal of Molecular Sciences, 2021)
